Among the data in ChEMBL document CHEMBL1208726, “Synthesis and anti-inflammatory activity of some 3-(4,6-disubtituted-2-thioxo-1,2,3,4-tetrahydropyrimidin-5-yl) propanoic acid derivatives” (2010) are inhibition in vivo and Activity values, retold here.

Holding throughout (format): functional
The subject of assay [1] is Rattus norvegicus. The assay is described as follows: Antiinflammatory activity in Albino rat assessed as inhibition of carrageenan-induced paw volume at 20 mg/kg, po administered 1 hr before carrageenan challenge measured after 1 hr. For orientation: The carrageenan paw model is a standard test of acute inflammation.
Assay [2] has as its system Rattus norvegicus. Nature of the assay: Antiinflammatory activity in Albino rat assessed as reduction of carrageenan-induced paw volume at 20 mg/kg, po administered 1 hr before carrageenan challenge measured after 2 hrs (reference value: 1.905 +/- 0.046 ml).
The test system of assay [3] is Rattus norvegicus. The assay is described as follows: Antiinflammatory activity in Albino rat assessed as inhibition of carrageenan-induced paw volume at 20 mg/kg, po administered 1 hr before carrageenan challenge measured after 3 hrs.
For assay [4], the system named is Rattus norvegicus. The assay is described as follows: Antiinflammatory activity in Albino rat assessed as reduction of carrageenan-induced paw volume at 20 mg/kg, po administered 1 hr before carrageenan challenge measured after 1 hr (reference value: 1.925 +/- 0.1011 ml).
For assay [5], the system named is Rattus norvegicus. Nature of the assay: Antiinflammatory activity in Albino rat assessed as reduction of carrageenan-induced paw volume at 20 mg/kg, po administered 1 hr before carrageenan challenge measured after 24 hrs (reference value: 1.39 +/- 0.053 ml).
In assay [6] the test system is Rattus norvegicus. The assay is described as follows: Antiinflammatory activity in Albino rat assessed as inhibition of carrageenan-induced paw volume at 20 mg/kg, po administered 1 hr before carrageenan challenge measured after 2 hrs.
In assay [7] the test system is Rattus norvegicus. Nature of the assay: Antiinflammatory activity in Albino rat assessed as reduction of carrageenan-induced paw volume at 20 mg/kg, po administered 1 hr before carrageenan challenge measured after 3 hrs (reference value: 1.63 +/- 0.059 ml).
For assay [8], the system named is Rattus norvegicus. Nature of the assay: Antiinflammatory activity in Albino rat assessed as reduction of carrageenan-induced paw volume at 20 mg/kg, po administered 1 hr before carrageenan challenge measured after 4 hrs (reference value: 1.44 +/- 0.046 ml).
Assay [9] has as its system Rattus norvegicus. Nature of the assay: Antiinflammatory activity in Albino rat assessed as inhibition of carrageenan-induced paw volume at 20 mg/kg, po administered 1 hr before carrageenan challenge measured after 4 hrs.
For assay [10], the system named is Rattus norvegicus. Nature of the assay: Antiinflammatory activity in Albino rat assessed as inhibition of carrageenan-induced paw volume at 20 mg/kg, po administered 1 hr before carrageenan challenge measured after 24 hrs.

Take `O=C(O)CCC1=C(c2ccc(F)cc2)NC(=S)NC1c1ccco1` (stereo not given): the inhibition in vivo at 20 mg/kg was 24.7% in assay [1], 3.68% in assay [3] and 14.2% in assay [6]. Besides, the Activity came to 1.63 mL in assay [2]; 1.45 mL in assay [4]; 1.48 mL in [5]; 1.57 mL in [7]; 1.56 mL in assay [8].

For `COc1cc(C2NC(=S)NC(c3ccc(C)cc3)=C2CCC(=O)O)ccc1O` (stereo not given), the Activity in assay [2] worked out at 1.87 mL; in assay [4], 1.96 mL; in [5], 1.55 mL; in assay [7], 1.79 mL; in assay [8], 1.69 mL. For the same compound, the inhibition in vivo at 20 mg/kg in assay [6] is 1.57%.

Take `O=C(O)CCC1=C(c2ccc(Cl)cc2)NC(=S)NC1c1ccco1` (stereo not given): the inhibition in vivo at 20 mg/kg in assay [1] was found to be 30.4%; in [3], 5.52%; in [6], 17.9%. Moreover, the Activity is 1.56 mL in assay [2]; 1.34 mL in [4]; 1.39 mL in [5]; 1.54 mL in [7]; 1.47 mL in assay [8].

As for `O=C(O)CCC1=C(c2ccc(Cl)cc2)NC(=S)NC1c1ccccc1O` (stereo not given), the inhibition in vivo at 20 mg/kg was found to be 9.61% in assay [1], 1.22% in [3] and 14.7% in assay [6]. The Activity in assay [2] is 1.62 mL; in assay [4] it was 1.74 mL; in assay [5], 1.46 mL; in assay [7], 1.61 mL; in [8], 1.58 mL.

For `COc1cc(C2NC(=S)NC(c3ccc(C)cc3)=C2CCC(=O)O)cc(OC)c1OC` (stereo not given), the inhibition in vivo at 20 mg/kg came out at 20.5% in assay [1], 15.9% in assay [3] and 14.2% in [6]. Also, the Activity came out at 1.63 mL in [2]; 1.53 mL in assay [4]; 1.54 mL in assay [5]; 1.37 mL in [7]; 1.44 mL in assay [8].

Consider `Cc1ccc(C2=C(CCC(=O)O)C(c3ccco3)NC(=S)N2)cc1` (stereo not given), for which the inhibition in vivo at 20 mg/kg in assay [1] amounted to 33%; in [9], 4.16%; in assay [3] it was 10.4%; in [6] it was 28.1%; in assay [10], 14.4%. Further, the Activity in assay [2] was found to be 1.37 mL; in [4], 1.29 mL; in [5], 1.19 mL; in assay [7] it was 1.46 mL; in [8], 1.38 mL.

Consider `O=C(O)CCC1=C(c2ccccc2)NC(=S)NC1c1ccccc1O` (stereo not given), for which the inhibition in vivo at 20 mg/kg worked out at 33% in assay [1], 12.9% in [3], 28.6% in assay [6] and 2.15% in assay [10]. For the same compound, the Activity in assay [2] turned out to be 1.36 mL; in assay [4], 1.29 mL; in [5] it was 1.36 mL; in assay [7], 1.42 mL; in assay [8] it was 1.49 mL.

For `O=C(O)CCC1=C(c2ccccc2)NC(=S)NC1c1ccco1` (stereo not given), the inhibition in vivo at 20 mg/kg in assay [1] amounted to 28.8%; in [9], 5.55%; in [3], 9.81%; in assay [6], 21.8%; in assay [10], 16.5%. Further, the Activity in assay [2] is 1.49 mL; in assay [4], 1.37 mL; in assay [5], 1.16 mL; in [7], 1.47 mL; in assay [8] it was 1.36 mL.

Regarding `O=C(O)CCC1=C(c2ccc(Cl)cc2)NC(=S)NC1c1ccccn1` (stereo not given), the inhibition in vivo at 20 mg/kg stood at 22.1% in [1], 5.52% in assay [3], 21.8% in assay [6] and 6.47% in assay [10]. Besides, the Activity was determined as 1.49 mL in assay [2]; 1.5 mL in assay [4]; 1.3 mL in assay [5]; 1.54 mL in assay [7]; 1.6 mL in assay [8].

With `COc1ccc(C2=C(CCC(=O)O)C(c3ccccc3O)NC(=S)N2)cc1` (stereo not given), the inhibition in vivo at 20 mg/kg came to 28.3% in assay [1]; 7.63% in assay [9]; 20.9% in assay [3]; 27% in [6]; 13.7% in assay [10]. In addition, the Activity in assay [2] was found to be 1.39 mL; in assay [4] it was 1.38 mL; in assay [5], 1.2 mL; in assay [7] it was 1.29 mL; in [8], 1.33 mL.

With `O=C(O)Cc1ccccc1Nc1c(Cl)cccc1Cl` [DICLOFENAC], the inhibition in vivo at 20 mg/kg was determined as 21.6% in [1], 6.94% in assay [9], 20.9% in assay [3] and 17.9% in assay [6]. Also, the Activity in assay [2] stood at 1.56 mL; in assay [4], 1.51 mL; in assay [5] it was 1.51 mL; in assay [7] it was 1.29 mL; in assay [8], 1.34 mL.

One may read the inhibition in vivo as the change of the read-out against control, counted positive when it falls.
